The target of one test is T1, PARP7 (Homo sapiens, UniProt Q7Z3E1).
T1 construct: purchased BPS 80527
T1 sequence (Q7Z3E1 1-657): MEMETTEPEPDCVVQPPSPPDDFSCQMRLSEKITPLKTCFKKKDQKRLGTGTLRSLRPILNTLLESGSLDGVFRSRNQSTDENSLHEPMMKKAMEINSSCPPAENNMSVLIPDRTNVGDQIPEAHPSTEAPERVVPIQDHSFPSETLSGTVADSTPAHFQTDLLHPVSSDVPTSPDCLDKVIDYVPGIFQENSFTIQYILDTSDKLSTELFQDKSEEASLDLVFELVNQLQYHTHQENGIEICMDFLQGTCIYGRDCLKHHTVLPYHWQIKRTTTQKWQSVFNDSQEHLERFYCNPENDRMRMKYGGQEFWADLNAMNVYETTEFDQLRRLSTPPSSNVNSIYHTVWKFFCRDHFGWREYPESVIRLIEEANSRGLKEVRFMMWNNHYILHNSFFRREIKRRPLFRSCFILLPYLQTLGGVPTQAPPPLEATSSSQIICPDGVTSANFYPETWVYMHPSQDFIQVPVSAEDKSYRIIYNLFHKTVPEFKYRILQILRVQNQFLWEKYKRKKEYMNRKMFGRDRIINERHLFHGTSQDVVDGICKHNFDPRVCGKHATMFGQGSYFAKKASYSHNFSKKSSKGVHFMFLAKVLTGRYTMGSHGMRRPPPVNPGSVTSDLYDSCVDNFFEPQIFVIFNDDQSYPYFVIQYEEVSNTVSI
The test can be described thus: Test of inhibitory activity against PARP7 enzyme (PARP7 FLAG-tag, Probe A, time-resolved fluorescence). It counts as biochemical. The settings on record: PARP7 12 nM, Probe A 2 nM, 1 hr room temperature.

For a further test, the system named is NCI-H1373 cells. The test can be described thus: Cell proliferation inhibition assay (CTG method). It counts as cell-based, human. The settings on record: read-out: IC50 (nM) for NCI-H1373 cell viability.
[1] abbreviates: Homo sapiens, NCI-H1373, 144 h, NCI-H1373 cells, 6 days incubation, CTG method.

Molecules are shown by their SMILES. pIC50: −log10 of the molar value. Like-named read-outs stand apart in the source and are kept apart here.

A word on the pIC50: it is the IC50 on a negative log10 scale, so that one unit is a factor of ten. A word on the IC50: it is the midpoint of a concentration-inhibition curve. For the compound `C[C@@H](COC[C@H](F)C(=O)N1CCN2c3ncc(C(F)(F)F)cc3N(C)C(=O)[C@@H]2C1)Nc1cn[nH]c(=O)c1C(F)(F)F` [Compound 66, (S)-8-((S)-2-fluoro-3-((S)-2-((6-oxo-5-(trifluoromethyl)-1,6-dihydropyridazin-4-yl)amino)propoxy)propionyl)-5-methyl-3-(trifluoromethyl)-7,8,9, 10-tetrahydro-5H-pyrazino[1,2-a]pyrido[3,2-e]pyrazin-6(6aH)-one], the pIC50 against PARP7 is more than 8.00. Also, the IC50 with NCI-H1373 cells (setting [1]) was in the range of 500 to 5000 nM.

In the case of `Cc1c(C(F)(F)F)cnc2c1OC[C@H]1CN(C(=O)CCOC[C@H](C)Nc3cn[nH]c(=O)c3C(F)(F)F)CCN21` [Compound 52, 5-(((S)-1-(3-((R)-4-methyl-3-(trifluoromethyl)-6a, 7,9, 10-tetrahydropyrazino[1,2-d]pyrido[3,2-b][1, 4]oxazinane-8(6H)-yl)-3-oxopropoxy)prop-2-yl)amino)-4-(trifluoromethyl)pyridazin-3(2H)-one], on PARP7, the negative-log IC50 (pIC50) is more than 8.00. For the same compound, the IC50 in the test on NCI-H1373 cells (setting [1]) is less than 100 nM.

Take `C[C@H](COCCC(=O)N1CCN2c3ncc(C(F)(F)F)cc3NCC[C@H]2C1)Nc1cn[nH]c(=O)c1C(F)(F)F` (stereo in doubt) [Compound 36, 5-(((R)-1-(3-oxo-3-((S)-3-(trifluoromethyl)-6,7,7a, 8,10,11-hexahydropyrazino[1,2-d]pyrido[3,2-b][1,4]diazepine-9(5H)-yl)propoxy)prop-2-yl)amino)-4-(trifluoromethyl)pyridazin-3(2H)-one]: the negative-log IC50 (pIC50) against PARP7 was more than 8.00. In addition, the IC50 in the test with NCI-H1373 cells (setting [1]) fell in the range of 500 to 5000 nM.

For `C[C@@H](COCCC(=O)N1CCN2c3ncc(C(F)(F)F)cc3CNC(=O)[C@H]2C1)Nc1cn[nH]c(=O)c1C(F)(F)F` [Compound 79, (R)-9-(3-((S)-2-((6-oxo-5-(trifluoromethyl)-1,6-dihydropyridazin-4-yl)amino)propoxy)propionyl)-3-(trifluoromethyl)-5,6,8,9, 10, 11-hexahydropyrazino[1,2-a]pyrido[3,2-f][1, 4]diazepin-7(7aH)-one], on PARP7, the negative logarithm of the IC50 (pIC50) is more than 8.00. For the same compound, in the test on NCI-H1373 cells (setting [1]), the IC50 lay in the range of 500 to 5000 nM.

As for `C[C@@H](COCCC(=O)N1CCN2c3ncc(C(F)(F)F)nc3N(C)C(=O)[C@@H]2C1)Nc1cn[nH]c(=O)c1C(F)(F)F` [Compound 58, (S)-5-methyl-8-(3-((S)-2-((6-oxo-5-(trifluoromethyl)-1,6-dihydropyridazin-4-yl)amino)propoxy)propionyl)-3-(trifluoromethyl)-7,8,9, 10-tetrahydro-5H-bipyrazino[1,2-a:2′, 3′-e]pyrazin-6(6aH)-one], the negative-log IC50 (pIC50) against PARP7 is more than 8.00. Further, the concentration for half-maximal inhibition (IC50) in the test with NCI-H1373 cells (setting [1]) is less than 100 nM.

`C[C@@H](COCCC(=O)N1CCN2c3ncc(C(F)(F)F)cc3CSC[C@H]2C1)Nc1cn[nH]c(=O)c1C(F)(F)F` [Compound 12, 5-(((S)-1-(3-oxo-3-((R)-3-(trifluoromethyl)-7a, 8,10,11-tetrahydro-5H-pyrazino[2,1-c]pyrido[2,3-e][1,4]thiazin-9(7H)-yl)propoxy)prop-2-yl)amino)-4-(trifluoromethyl)pyridazin-3(2H)-one] gave a pIC50 at PARP7 of more than 8.00. Further, the 50% inhibitory concentration (IC50) with NCI-H1373 cells (setting [1]) was less than 100 nM.

The compound `CC1SC[C@H]2CN(C(=O)CCOC[C@H](C)Nc3cn[nH]c(=O)c3C(F)(F)F)CCN2c2ncc(C(F)(F)F)cc21` (stereo partly drawn) [Compound 27] gave a pIC50 against PARP7 of more than 8.00. For the same compound, the concentration for half-maximal inhibition (IC50) in the test on NCI-H1373 cells (setting [1]) was in the range of 500 to 5000 nM.

Regarding `C[C@@H](COCCC(=O)N1CCN2c3ncc(C(F)(F)F)cc3C(=O)N(C)C[C@H]2C1)Nc1cn[nH]c(=O)c1C(F)(F)F` [Compound 42, (S)-6-methyl-9-(3-((S)-2-((6-oxo-5-(trifluoromethyl)-1,6-dihydropyridazin-4-yl)amino)propoxy)propionyl)-3-(trifluoromethyl)-7,7a, 8,9,10,11-hexahydropyrazino[1,2-a]pyrido[3,2-f][1,4]diazepan-5(6H)-one], at PARP7, the pIC50 was more than 8.00. Further, in the test with NCI-H1373 cells (setting [1]), the half-inhibitory concentration (IC50) was 500 to 5000 nM.

Turning to `C[C@@H](COCCC(=O)N1CCN2c3ncc(C(F)(F)F)cc3C=C[C@H]2C1)Nc1cn[nH]c(=O)c1C(F)(F)F` [Compound 60], the negative-log IC50 (pIC50) against PARP7 is more than 8.00. In addition, the half-inhibitory concentration (IC50) in the test on NCI-H1373 cells (NCI-H1373 cells, 6 days incubation, CTG method) is less than 100 nM.

At PARP7, `C[C@@H](COCCC(=O)N1CCN2c3ncc(C(F)(F)F)cc3CS(=O)(=O)C[C@H]2C1)Nc1cn[nH]c(=O)c1C(F)(F)F` [Compound 22] gave a pIC50 of more than 8.00. In the test on NCI-H1373 cells (setting [1]), the half-maximal inhibitory concentration (IC50) was in the range of 500 to 5000 nM.

`C[C@@H](COCCC(=O)N1CCN2c3ncc(C(F)(F)F)cc3N(C3CC3)C(=O)[C@@H]2C1)Nc1cn[nH]c(=O)c1C(F)(F)F` [Compound 30, (s)-5-cyclopropyl-8-(3-((S)-2-((6-oxo-5-(trifluoromethyl)-1,6-dihydropyridazin-4-yl)amino)propoxy)propionyl)-3-(trifluoromethyl)-7,8,9,10-tetrahydro-5H-pyrazino[1,2-a]pyrido[3,2-e]pyrazin-6(6aH)-one] showed a negative logarithm of the IC50 (pIC50) on PARP7 of more than 8.00. Also, in the test with NCI-H1373 cells (setting [1]), the IC50 was 100 to 500 nM.

For the compound `C[C@@H](COCCC(=O)N1CCN2c3ncc(C(F)(F)F)nc3N(C)C(=O)[C@H]2C1)Nc1cn[nH]c(=O)c1C(F)(F)F` [Compound 48, (R)-5-methyl-8-(3-((S)-2-((6-oxo-5-(trifluoromethyl)-1,6-dihydropyridazin-4-yl)amino)propoxy)propionyl)-3-(trifluoromethyl)-7,8,9, 10-tetrahydro-5H-bipyrazino[1,2-a:2′, 3′-e]pyrazin-6(6aH)-one], the pIC50 against PARP7 was more than 8.00. The IC50 with NCI-H1373 cells (setting [1]) was less than 100 nM.

In the case of `C[C@@H](COCCC(=O)N1CCN2c3ncc(C#N)cc3N(C)C(=O)[C@@H]2C1)Nc1cn[nH]c(=O)c1C(F)(F)F` [Compound 53], at PARP7, the negative-log IC50 (pIC50) was more than 8.00. The IC50 with NCI-H1373 cells (setting [1]) was in the range of 100 to 500 nM.

`C[C@@H](COCCC(=O)N1CCN2Cc3ncc(C(F)(F)F)cc3OC[C@@H]2C1)Nc1cn[nH]c(=O)c1C(F)(F)F` [Compound 19, 5-(((S)-1-(3-oxo-3-((S)-3-(trifluoromethyl)-6a, 7,9,10-tetrahydro-12H-pyrazino[2,1-c]pyrido[2,3-f][1,4]oxazepin-8(6H)-yl)propoxy)prop-2-yl)amino)-4-(trifluoromethyl)pyridazin-3(2H)-one] gave a negative-log IC50 (pIC50) at PARP7 of 6.30 to 7.00. Besides, in the test with NCI-H1373 cells (setting [1]), the IC50 was more than 5000 nM.

Turning to `C[C@@H](COCCC(=O)N1CCN2c3ncc(C(F)(F)F)cc3C[S+]([O-])C[C@H]2C1)Nc1cn[nH]c(=O)c1C(F)(F)F` (stereo partly drawn) [Compound 15, 5-(((2S)-1-(3-((7aR)-6-oxo-3-(trifluoromethyl)-7a, 8,10,11-tetrahydro-5H-pyrazino[2,1-c]pyrido[2,3-e][1,4]thiazin-9(7H)-yl)-3-oxopropoxy)prop-2-yl)amino)-4-(trifluoromethyl)pyridazin-3(2H)-one], the pIC50 at PARP7 was more than 8.00. In the test with NCI-H1373 cells (setting [1]), the 50% inhibitory concentration (IC50) lay within 500 to 5000 nM.

Take `C[C@@H](COCCC(=O)N1CCN2c3ncc(C(F)(F)F)cc3CN(C#N)C[C@H]2C1)Nc1cn[nH]c(=O)c1C(F)(F)F` [Compound 11]: the negative logarithm of the IC50 (pIC50) on PARP7 was more than 8.00. Moreover, the concentration for half-maximal inhibition (IC50) in the test on NCI-H1373 cells (setting [1]) was in the range of 500 to 5000 nM.

`C[C@@H](COCCC(=O)N1CCN2c3ncc(C(F)(F)F)cc3C(=O)OC[C@H]2C1)Nc1cn[nH]c(=O)c1C(F)(F)F` [Compound 3, (R)-9-(3-((S)-2-((6-oxo-5-(trifluoromethyl)-1,6-dihydropyridazin-4-yl)amino)propoxy)propionyl)-3-(trifluoromethyl)-7,7a, 8,9,10,11-hexahydro-5H-pyrazino[2,1-c]pyrido[2,3-e][1,4]oxazin-5-one] showed a negative logarithm of the IC50 (pIC50) on PARP7 of more than 8.00. Also, the half-inhibitory concentration (IC50) in the test with NCI-H1373 cells (setting [1]) is more than 5000 nM.

`CCN1C(=O)[C@@H]2CN(C(=O)CCOC[C@H](C)Nc3cn[nH]c(=O)c3C(F)(F)F)CCN2c2ncc(C(F)(F)F)cc21` [Compound 40, (S)-5-ethyl-8-(3-((S)-2-((6-oxo-5-(trifluoromethyl)-1,6-dihydropyridazin-4-yl)amino)propoxy)propionyl)-3-(trifluoromethyl)-7,8,9,10-tetrahydro-5H-pyrazino[1,2-a]pyrido[3,2-e]pyrazin-6(6aH)-one] showed a pIC50 at PARP7 of more than 8.00. For the same compound, the IC50 with NCI-H1373 cells (Homo sapiens, NCI-H1373, 144 h) is less than 100 nM.

In the case of `C[C@@H](COCCC(=O)N1CCN2c3ncc(C(F)(F)F)cc3NC(=O)CC2C1)Nc1cn[nH]c(=O)c1C(F)(F)F` (single isomer, unassigned) [Compound 84], the negative logarithm of the IC50 (pIC50) at PARP7 is more than 8.00. Besides, the IC50 in the test on NCI-H1373 cells (setting [1]) was more than 5000 nM.

Consider `C[C@@H](COC[C@@H](F)C(=O)N1CCN2c3ncc(C(F)(F)F)cc3C=C[C@@H]2C1)Nc1cn[nH]c(=O)c1C(F)(F)F` [Compound 73], for which the pIC50 on PARP7 was more than 8.00. The IC50 with NCI-H1373 cells (setting [1]) is less than 100 nM.

`C[C@@H](COCCC(=O)N1CCN2c3ncc(C(F)(F)F)c(C#N)c3OC[C@H]2C1)Nc1cn[nH]c(=O)c1C(F)(F)F` [Compound 51, (R)-8-(3-((S)-2-((6-oxo-5-(trifluoromethyl)-1,6-dihydropyridazin-4-yl)amino)propoxy)propionyl)-3-(trifluoromethyl)-6,6a, 7,8,9, 10-hexahydropyrazino[1,2-d]pyrido[3,2-b][1, 4]oxazinane-4-carbonitrile]: at PARP7, the pIC50 is more than 8.00. For the same compound, the IC50 with NCI-H1373 cells (setting [1]) lay within 100 to 500 nM.

For the origin of these results see patent US20240166664A1, “TRIHETEROCYCLIC COMPOUND, PREPARATION METHOD THEREFOR, AND APPLICATION THEREOF” (SHANGHAI APEIRON THERAPEUTICS COMPANY LIMITED, priority 2021, published 2024).
